Laboratory results from ChEMBL document CHEMBL1201862, “PubChem BioAssay data set” (2004).
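Tested at 5 concentrations; 48 h exposure; 96-well plates; endpoints linearly interpolated, else capped at highest concentration. The concentration for 50% growth inhibition is given as GI50.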 Calls of active or inactive are those of the source. Rule as the data show it: active = GI50 up to about 1.1 µM and inactive = higher.

What was measured:
Assay in all cases: NCI tumour cell line growth inhibition, 48 h
SK-OV-3 = test system: SK-OV-3
OVCAR-5 = test system: OVCAR-5
HL-60 = test system: HL-60
SK-MEL-5 = test system: SK-MEL-5
T47D = test system: T47D
A549 = test system: A549
SF-295 = test system: SF-295
UO-31 = test system: UO-31
MDA-MB-231 = test system: MDA-MB-231
MDA-MB-435 = test system: MDA-MB-435
NCI/ADR-RES = test system: NCI/ADR-RES
PC-3 = test system: PC-3
HOP-92 = test system: HOP-92
HCC 2998 = test system: HCC 2998
COLO 205 = test system: COLO 205
LOX IMVI = test system: LOX IMVI
SF-268 = test system: SF-268
UACC-62 = test system: UACC-62
NCI-H460 = test system: NCI-H460
RXF 393 = test system: RXF 393

Measured: GI50

COc1ccc2nc(-c3ccccc3)cc(OCC(=O)O)c2c1
inactive: SK-OV-3 > 100 µM | OVCAR-5 > 100 µM | HL-60 > 100 µM | SK-MEL-5 > 100 µM | T47D > 100 µM | A549 > 100 µM | SF-295 > 100 µM | UO-31 25.4 µM | MDA-MB-231 > 100 µM | MDA-MB-435 > 100 µM | NCI/ADR-RES > 100 µM | PC-3 > 100 µM | HOP-92 > 100 µM | HCC 2998 > 100 µM | COLO 205 > 100 µM | LOX IMVI > 100 µM | SF-268 > 100 µM | UACC-62 > 100 µM | NCI-H460 > 100 µM

COC1(OC)N=C(N)C2(C#N)C(C)=C3NCN(C)N=C3C12C#N (stereo not drawn)
inactive: SK-OV-3 > 100 µM | OVCAR-5 > 100 µM | RXF 393 > 100 µM | HL-60 > 10 µM | SK-MEL-5 > 100 µM | T47D > 100 µM | A549 > 100 µM | SF-295 > 100 µM | UO-31 > 100 µM | MDA-MB-231 > 100 µM | MDA-MB-435 > 100 µM | NCI/ADR-RES > 100 µM | PC-3 > 100 µM | HOP-92 > 100 µM | HCC 2998 > 100 µM | COLO 205 > 100 µM | LOX IMVI > 100 µM | SF-268 > 100 µM | UACC-62 > 100 µM

COc1ccc2c(c1)CCN=C2Cc1ccccc1CCCl
inactive: SK-OV-3 39.3 µM | OVCAR-5 40.5 µM | RXF 393 27.8 µM | HL-60 14.2 µM | SK-MEL-5 17.5 µM | T47D 17.7 µM | A549 28.6 µM | SF-295 20.7 µM | UO-31 16.5 µM | MDA-MB-231 15.4 µM | MDA-MB-435 17.1 µM | NCI/ADR-RES 19.1 µM | PC-3 25.8 µM | HOP-92 23.7 µM | HCC 2998 17.1 µM | COLO 205 17.5 µM | SF-268 21.8 µM | UACC-62 22.5 µM | NCI-H460 15.4 µM

CC(=O)Nc1nc(C)c(S(=O)(=O)NC(=O)N2c3ccccc3CCc3ccccc32)s1
inactive: SK-OV-3 > 100 µM | OVCAR-5 > 100 µM | RXF 393 > 100 µM | HL-60 > 100 µM | SK-MEL-5 > 100 µM | T47D > 100 µM | A549 > 100 µM | SF-295 > 100 µM | UO-31 > 100 µM | MDA-MB-231 > 100 µM | MDA-MB-435 > 100 µM | NCI/ADR-RES > 100 µM | PC-3 > 100 µM | HOP-92 > 100 µM | HCC 2998 > 100 µM | COLO 205 > 100 µM | LOX IMVI > 100 µM | SF-268 > 100 µM | UACC-62 > 100 µM | NCI-H460 > 100 µM

O=[N+]([O-])c1cc2c(c3nonc13)OCCCCO2
inactive: SK-OV-3 26.4 µM | OVCAR-5 12.1 µM | RXF 393 7.74 µM | HL-60 2.55 µM | SK-MEL-5 8.61 µM | T47D 26.5 µM | A549 10.3 µM | SF-295 17.5 µM | UO-31 4.19 µM | MDA-MB-231 3.31 µM | MDA-MB-435 5.25 µM | NCI/ADR-RES 10.5 µM | PC-3 14.9 µM | HOP-92 12.7 µM | HCC 2998 17.3 µM | COLO 205 4.95 µM | LOX IMVI 2.81 µM | SF-268 3.37 µM | UACC-62 5.77 µM | NCI-H460 3.76 µM

C/C(Sc1ccccc1)=C1/CCCN(Cc2ccccc2)C1
inactive: SK-OV-3 32.7 µM | OVCAR-5 23.7 µM | RXF 393 16.6 µM | HL-60 13.7 µM | SK-MEL-5 14.3 µM | T47D 13.3 µM | A549 32.7 µM | SF-295 17.4 µM | UO-31 15.3 µM | MDA-MB-231 24.1 µM | MDA-MB-435 25.1 µM | NCI/ADR-RES 24.9 µM | PC-3 21.9 µM | HOP-92 17.5 µM | HCC 2998 17.2 µM | COLO 205 17.5 µM | LOX IMVI 14.1 µM | SF-268 36.1 µM | UACC-62 19.9 µM | NCI-H460 21.8 µM

CC(=O)CC(O)(C(F)(F)Cl)C(F)(Cl)Cl (stereo not drawn)
inactive: SK-OV-3 > 10 µM | RXF 393 > 10 µM | HL-60 > 10 µM | SK-MEL-5 > 10 µM | T47D > 10 µM | A549 > 10 µM | SF-295 > 10 µM | UO-31 > 10 µM | MDA-MB-231 > 10 µM | MDA-MB-435 > 10 µM | NCI/ADR-RES > 10 µM | PC-3 > 10 µM | HOP-92 > 10 µM | HCC 2998 > 10 µM | COLO 205 > 10 µM | LOX IMVI > 10 µM | SF-268 > 10 µM | UACC-62 > 10 µM | NCI-H460 > 10 µM

COc1cc(C2c3cc4c(cc3C(O)C3CCC(=O)N23)OCO4)cc(OC)c1OC (stereo not drawn)
inactive: SK-OV-3 80.2 µM | OVCAR-5 43.2 µM | HL-60 17.1 µM | SK-MEL-5 10.9 µM | T47D > 100 µM | A549 39.3 µM | SF-295 6.68 µM | UO-31 15.7 µM | MDA-MB-231 > 100 µM | MDA-MB-435 3.54 µM | NCI/ADR-RES 53 µM | PC-3 54.3 µM | HOP-92 33 µM | HCC 2998 34.4 µM | COLO 205 37 µM | LOX IMVI 52.4 µM | SF-268 49.9 µM | UACC-62 40.8 µM | NCI-H460 39.4 µM

NC1=NNC2(C(N)=N1)c1ccccc1-c1ccccc12
inactive: SK-OV-3 > 10 µM | RXF 393 > 10 µM | HL-60 > 10 µM | SK-MEL-5 > 10 µM | T47D > 10 µM | A549 > 10 µM | SF-295 > 10 µM | UO-31 5.13 µM | MDA-MB-231 > 10 µM | MDA-MB-435 > 10 µM | NCI/ADR-RES > 10 µM | PC-3 > 10 µM | HOP-92 > 10 µM | HCC 2998 > 10 µM | COLO 205 > 10 µM | LOX IMVI > 10 µM | SF-268 > 10 µM | UACC-62 > 10 µM | NCI-H460 > 10 µM

Cn1c(-c2ccc(C=O)o2)ccc1-c1ccc(C=O)o1
inactive: SK-OV-3 > 100 µM | OVCAR-5 > 100 µM | RXF 393 > 100 µM | HL-60 19.8 µM | SK-MEL-5 30.9 µM | T47D 26.1 µM | A549 > 100 µM | SF-295 58.7 µM | UO-31 35.3 µM | MDA-MB-231 38 µM | MDA-MB-435 38.6 µM | NCI/ADR-RES 35.7 µM | PC-3 39.4 µM | HOP-92 36.6 µM | HCC 2998 > 100 µM | COLO 205 87.7 µM | LOX IMVI 31.7 µM | UACC-62 74.1 µM | NCI-H460 > 100 µM
